Consider five compounds from US20250074910A1, “MENIN INHIBITOR AND USE THEREOF” (HITGEN INC., priority 2021, published 2025).

By GI50 is commonly meant the concentration that inhibits growth by half. A high value points to lower sensitivity of the cells. Broadly, the AUC(0-t) is the area under the concentration-time curve up to a stated or last time point. A lower AUC(0-t) goes with less exposure. For orientation: Cmax means the peak of the concentration-time curve.

The test system of data set [1] is MV4-11. Briefly: Cell proliferation inhibition (CellTiter-Glo), MV4-11. In kind it is cell-based. The conditions noted are these: Homo sapiens, MV4-11, 72 h, MV4-11 cells. In short, it runs like this:
(§1)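 Seed 5,000-20,000 cells/well; add compound to final 1 nM-10 μM; culture 72-168 h at 37° C, 5% CO2; add equal volume CellTiter-Glo, 10 min RT; read luminescence; fit IC50.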
On the technique in general: ATP-based viability assays read luminescence as a measure of living cells.

Data set [2] deals with MOLM-13. The data set is described as follows: Cell proliferation inhibition (CellTiter-Glo), MOLM-13. In kind it is cell-based. The conditions noted are these: Homo sapiens, MOLM-13, 168 h, MOLM-13 cells. In short, it runs like this:
as §1

The nature of data set [3]: Stability in mouse liver microsomes. In kind it is in vitro ADME. The note with it: liver microsomes, pH 7.4, 0.5 mg/mL microsomal protein, 1.00 μM compound, NADPH, read-out: Half life T1/2, mouse liver microsomes. The procedure, abridged: (§2)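 Compound at 1.00 μM incubated at 37° C with 0.5 mg/mL liver microsomal protein and 2.00 mM NADPH in 100 mM phosphate buffer pH 7.4, sampled 0–60 min with acetonitrile quench. Parent remaining by LC-MS/MS; T½ from ln-remaining slope, CLint scaled by microsomal concentration and conversion factor.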
For orientation: Microsomes from liver hold many membrane-bound enzymes, among them those of drug oxidation.

A short description of data set [4]: Stability in human liver microsomes. In kind it is in vitro ADME. The note with it: human, liver microsomes, pH 7.4, Human; 0.5 mg/mL microsomal protein, 1.00 μM compound, NADPH; read-out: Half life T1/2, human liver microsomes. In short, it runs like this: as §2
The nature of data set [5]: Pharmacokinetics test in mouse. In kind it is in vivo, ICR mice. The conditions noted are these: mice, p.o. 10 mg/kg; for AUC(0-t) / half-life / Cmax: male, ICR, mouse, plasma, po, 10 mg/kg; for Cmax: read-out: Cmax; for F, %: 1 mg/kg for intravenous injection. In short, it runs like this: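 Fasted male ICR mice dosed with compound in saline with 1.5 eq HCl, 1 mg/kg i.v. or 10 mg/kg oral gavage (6 mice each). Plasma sampled 5 min–24 h, measured by LC-MS/MS; t½, Cmax, AUC, CL and F% by non-compartmental analysis, mean±SD.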

The structures appear in SMILES notation. Bounds are passed on as bounds.

The compound `CC(C)N(C(=O)c1cc(F)ccc1Oc1nncnc1N1CC2(CCN(CC3CC4CCC3CC43CCC(=O)N3)CC2)C1)C(C)C` (single isomer, unassigned) [Example 15-1a] had a GI50 in data set [1] of 56.6 nM. This compound also came in with a GI50 in data set [2] of 154 nM. The half-life at 1 μM in data set [3] is 1.52 h. Also, in data set [4], the half-life at 1 μM worked out at 0.614 h. For the same compound, in data set [5], the AUC(0-t) came to 6410 ng·h/mL; the half-life was 1.17 h; the Cmax is 3030 ng/mL; the “F, %” value is listed as 60%.

In turn, `COC[C@H]1C[C@]2(CC[C@@H](CN3CCC4(CC3)CN(c3ncnnc3Oc3ccc(F)cc3C(=O)N(C(C)C)C(C)C)C4)CC2)NC1=O` [Example 38-1] displayed a GI50 in data set [1] of 53.8 nM. For the same compound, the GI50 in data set [2] was 194 nM. Moreover, the half-life at 1 μM in data set [3] is more than 2 h. Further, in data set [4], the half-life at 1 μM was 1.47 h. For the same compound, in data set [5], the AUC(0-t) was 5060 ng·h/mL; the half-life was 1.06 h; the Cmax was found to be 2260 ng/mL; the “F, %” value was 67%.

As to `COCC1(COC)C[C@]2(CC[C@@H](CN3CCC4(CC3)CN(c3ncnnc3Oc3ccc(F)cc3C(=O)N(C(C)C)C(C)C)C4)CC2)NC1=O` [Example 20], the GI50 in data set [1] was determined as 14.2 nM. Further, halving of growth in data set [2] (GI50) required 36.1 nM. Besides, in data set [3], the half-life at 1 μM was 1.85 h. Besides, in data set [4], the half-life at 1 μM stood at 1.25 h. In data set [5], the AUC(0-t) is 2180 ng·h/mL; the half-life was 1.88 h; the highest concentration (Cmax) was 919 ng/mL; the “F, %” value is given as 84%.

`CCN(C(=O)c1cc(F)ccc1Oc1cncnc1N1CC2(CCN(C[C@H]3CC[C@]4(CC3)CC(COC)(COC)C(=O)N4)CC2)C1)C(C)C` [Example 17] came in with a GI50 in data set [1] of 13.8 nM. In addition, the GI50 in data set [2] was 7.9 nM. In addition, in data set [3], the half-life at 1 μM is more than 2 h. The half-life at 1 μM in data set [4] was 0.522 h. In addition, in data set [5], the AUC(0-t) was 3220 ng·h/mL; the half-life was 1.12 h; the Cmax amounted to 2120 ng/mL; the “F, %” value worked out at 56%.

In turn, `COC[C@@H]1C[C@]2(CC[C@@H](CN3CCC4(CC3)CN(c3ncnnc3Oc3ccc(F)cc3C(=O)N(C(C)C)C(C)C)C4)CC2)NC1=O` [Example 38-2] registered a GI50 in data set [1] of 13.1 nM. Moreover, it took 23.3 nM to inhibit growth in data set [2] by half (GI50). The half-life at 1 μM in data set [3] worked out at 1.08 h. Besides, the half-life at 1 μM in data set [4] is 1.04 h. In addition, in data set [5], the AUC(0-t) is 1980 ng·h/mL; the half-life was 0.83 h; the Cmax is 824 ng/mL; the “F, %” value was found to be 55%.
